Where “and” joins values, the source holds several entries; their conditions need not be identical. Equal entries are not always repeated.
Assays:
[1] = system: mice; assay: In vivo delivery of FLuc-mRNA lipid nanoparticles in mice, in vivo imaging (IVIS)
Outline: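 Mice (n=3) received about 75 μL FLuc-mRNA LNP per mouse intramuscularly (rectus femoris), intravenously (tail vein), intraperitoneally or subcutaneously (back). After injection, D-luciferin (200 μL, 15 mg/mL) was given i.p. 10-15 min before IVIS imaging.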

[2] = system: mice; assay: In vivo delivery of lipid nanoparticles co-loaded with FLuc-mRNA and Cy5-siRNA in mice; settings: IV, 1.00:10.00:33.00:56.00, N/P 30
Description: Lipid nanoparticles loaded with nucleic acid drugs were prepared according to step 2, replacing FLuc-mRNA with a mixture of FLuc-mRNA (Hongene Biotech Corporation, Shanghai) and Cy5-siRNA. Each mouse was administered a dose of 3 μg FLuc-mRNA and 3 μg Cy5-siRNA. After a certain period of time, in vivo imaging (PerkinElmer, IVIS Lumina III) was performed. For the detection of FLuc-mRNA expression, 200 μL of a 15 mg/mL D-Luciferin working solution was injected intraperitoneally ten to fifteen minutes before imaging, followed by imaging analysis using the in vivo imaging system. 9. Investigation of the Delivery Efficacy of Lipid Nanoparticle Formulations for Compounds in Mice

[3] = Particle size and PDI of nucleic acid lipid nanoparticle preparations by dynamic light scattering; assay type: physicochemical
Outline: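 LNP solution (about 0.04 mg/mL mRNA before dilution) was diluted in ultrapure water and mixed by gentle pipetting. Particle size and PDI were then measured by dynamic light scattering.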

[4] = Potential characterization of nucleic acid lipid nanoparticle preparations; assay type: physicochemical
Outline: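 Zeta potential was read on a Malvern ZEN3700 after diluting 20 μL lipid nanoparticle solution (about 0.04 mg/mL mRNA) into 780 μL ultrapure water. Alternatively, a 27.5 μL sample in 200 μL water was first sized by dynamic light scattering, then diluted with 600 μL more water for potential measurement.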

[5] = DMG-PEG2000:DSPC:Chol:Lipid 1.00:4.00:65.00:30.00, N/P 6, IV, liver
[6] = DMG-PEG2000:DSPC:Chol:Lipid 1.00:4.00:65.00:30.00, N/P 6, IV, lung
[7] = DMG-PEG2000:DSPC:Chol:Lipid 1.00:4.00:65.00:30.00, N/P 6, IV, spleen
[8] = DMG-PEG2000:DSPC:Chol:Lipid 5.00:10.00:29.00:56.00, N/P 42, IV, liver
[9] = DMG-PEG2000:DSPC:Chol:Lipid 5.00:10.00:29.00:56.00, N/P 42, IV, lung
[10] = DMG-PEG2000:DSPC:Chol:Lipid 5.00:10.00:29.00:56.00, N/P 42, IV, spleen
[11] = mRNA LNP, 1.00:10.00:33.00:56.00, N/P 42, IV, liver
[12] = mRNA LNP, 1.00:10.00:33.00:56.00, N/P 42, IV, lung
[13] = mRNA LNP, 1.00:10.00:33.00:56.00, N/P 42, IV, spleen
[14] = DMG-PEG2000:DSPC:Chol:Lipid 1.00:4.00:65.00:30.00, N/P 6, mRNA LNP
[15] = DMG-PEG2000:DSPC:Chol:Lipid 2.18:17.32:60.50:20.00, N/P 30, mRNA LNP
[16] = DMG-PEG2000:DSPC:Chol:Lipid 5.00:10.00:29.00:56.00, N/P 42, mRNA LNP
[17] = DMG-PEG2000:DSPC:Chol:compound 1.00:10.00:33.00:56.00, N/P 42
[18] = DMG-PEG2000:DSPC:Chol:compound 1.00:10.00:33.00:56.00, N/P 48
[19] = LNP co-loaded with Fluc-mRNA and Cy5-siRNA, DMG-PEG2k:DSPC:Chol:L0263 1.00:10.00:33.00:56.00, N/P 30
[20] = mRNA LNP, 1.00:10.00:33.00:56.00, N/P 42

## CCCCCCCCCCCCNC(=O)C(O)CN(CCCN(C)CCCN(CC(O)C(=O)NCCCCCCCCCCCC)CC(O)C(=O)NCCCCCCCCCCCC)CC(O)C(=O)NCCCCCCCCCCCC (centres unmarked) [Compound L0263]
[1]; DMG-PEG2000:DSPC:Chol:Lipid 1.00:4.00:65.00:30.00, N/P 6, IV, body
  IVIS: 1.07 × 10^7
[1]; [5]
  % of organ targeting: 10.71%
  IVIS: 1.34 × 10^6
[1]; [6]
  % of organ targeting: 12.46%
  IVIS: 1.55 × 10^6
[1]; [7]
  % of organ targeting: 76.83%
  IVIS: 9.58 × 10^6
[1]; DMG-PEG2000:DSPC:Chol:Lipid 2.18:17.32:60.50:20.00, N/P 30, IM, whole body scan
  IVIS: 6.05 × 10^6
[1]; DMG-PEG2000:DSPC:Chol:Lipid 5.00:10.00:29.00:56.00, N/P 42, IV, body
  IVIS: 1.83 × 10^8
[1]; [8]
  % of organ targeting: 2.01%
  IVIS: 4.24 × 10^6
[1]; [9]
  % of organ targeting: 90.12%
  IVIS: 1.90 × 10^8
[1]; [10]
  % of organ targeting: 7.87%
  IVIS: 1.66 × 10^7
[1]; IP, organ not given, DMG-PEG2000:DSPC:Chol:compound 1.00:10.00:33.00:56.00, N/P 42, Fluc-mRNA
  IVIS: 5.82E+09
[1]; IV, body, DMG-PEG2000:DSPC:Chol:compound 1.00:10.00:33.00:56.00, N/P 48, Fluc-mRNA
  IVIS: 7.08E+08
[1]; IV, liver, DMG-PEG2000:DSPC:Chol:compound 1.00:10.00:33.00:56.00, N/P 48
  % of organ targeting: 0.44%
[1]; IV, liver, DMG-PEG2000:DSPC:Chol:compound 1.00:10.00:33.00:56.00, N/P 48, Fluc-mRNA
  IVIS: 1.71E+07
[1]; IV, lung, DMG-PEG2000:DSPC:Chol:compound 1.00:10.00:33.00:56.00, N/P 48
  % of organ targeting: 98.92%
[1]; IV, lung, DMG-PEG2000:DSPC:Chol:compound 1.00:10.00:33.00:56.00, N/P 48, Fluc-mRNA
  IVIS: 3.83E+09
[1]; IV, spleen, DMG-PEG2000:DSPC:Chol:compound 1.00:10.00:33.00:56.00, N/P 48
  % of organ targeting: 0.63%
[1]; IV, spleen, DMG-PEG2000:DSPC:Chol:compound 1.00:10.00:33.00:56.00, N/P 48, Fluc-mRNA
  IVIS: 2.46E+07
[1]; certain formulations, Table 2
  in vivo delivery efficiency as compared to the benchmark compound SM102: superior in vivo delivery efficiency
  tissue-targeting specificity (lung vs spleen depending on molar percentage of compound): strong tissue-targeting specificity
[1]; [11]
  % of organ targeting: 0.46%
  IVIS: 8.07E+06
[1]; [12]
  % of organ targeting: 99.18%
  IVIS: 1.74E+09
[1]; [13]
  % of organ targeting: 0.36%
  IVIS: 6.30E+06
[1]; mRNA LNP, DMG-PEG2000:DSPC:Chol:lipid 1.00:10.00:33.00:56.00, N/P 42, IV, body
  IVIS: 2.93E+08
[2]; 10 min, Heart
  % of organ targeting (Fluc): 0.2%
  Fluc IVIS/g Organ: 9.76E+05
[2]; 10 min, Kidney
  % of organ targeting (Fluc): 0.1%
  Fluc IVIS/g Organ: 3.33E+05
[2]; 10 min, Liver
  % of organ targeting (Fluc): 0.1%
  Fluc IVIS/g Organ: 5.97E+05
[2]; 10 min, Lung
  % of organ targeting (Fluc): 97.9%
  Fluc IVIS/g Organ: 4.98E+08
[2]; 10 min, Spleen
  % of organ targeting (Fluc): 1.7%
  Fluc IVIS/g Organ: 8.58E+06
[2]; 20 min, Heart
  % of organ targeting (Fluc): 0.2%
  Fluc IVIS/g Organ: 3.16E+06
[2]; 20 min, Kidney
  % of organ targeting (Fluc): 0.0%
  Fluc IVIS/g Organ: 4.37E+05
[2]; 20 min, Liver
  % of organ targeting (Fluc): 0.1%
  Fluc IVIS/g Organ: 1.27E+06
[2]; 20 min, Lung
  % of organ targeting (Fluc): 99.2%
  Fluc IVIS/g Organ: 1.98E+09
[2]; 20 min, Spleen
  % of organ targeting (Fluc): 0.6%
  Fluc IVIS/g Organ: 1.13E+07
[2]; 1 h, Heart
  % of organ targeting (Fluc): 0.2%
  Fluc IVIS/g Organ: 6.32E+06
[2]; 1 h, Kidney
  % of organ targeting (Fluc): 0.0%
  Fluc IVIS/g Organ: 1.67E+06
[2]; 1 h, Liver
  % of organ targeting (Fluc): 0.1%
  Fluc IVIS/g Organ: 3.51E+06
[2]; 1 h, Lung
  % of organ targeting (Fluc): 98.1%
  Fluc IVIS/g Organ: 3.70E+09
[2]; 1 h, Spleen
  % of organ targeting (Fluc): 1.6%
  Fluc IVIS/g Organ: 5.86E+07
[3]; [14]
  PDI: 0.12 ± 0.01
  Particle size: 110.83 ± 1.05 nm
[3]; [15]
  PDI: 0.11 ± 0.02
  Particle size: 126.23 ± 1.69 nm
[3]; [16]
  PDI: 0.12 ± 0.01
  Particle size: 126.40 ± 2.08 nm
[3]; [17]
  PDI: 0.13 and 0.15
  Particle size (nm): 86.62 nm and 139.47 nm and 118.13 nm
[3]; [18]
  PDI: 0.13
  Particle size (nm): 118.33 nm
[3]; [19]
  PDI: 0.14
  Particle size (nm): 95.5 nm
[3]; [20]
  PDI: 0.14
  Particle size (nm): 97.48 nm
[4]; [17]
  Zeta potential (mV): 11.54 mV
[4]; [18]
  Zeta potential (mV): 16.93 mV
[4]; [19]
  Zeta potential (mV): 12.77 mV
[4]; [20]
  Zeta potential (mV): 11.97 mV

Source: US12233161B1, “Lipids and lipid nanoparticle formulations” (LONGUIDE BIOPHARMA CORPORATION, priority 2024, dated 2025)
